Measured values reported in patent publication US11066398B2, “Small molecule c-Myc inhibitors” (THE SCRIPPS RESEARCH INSTITUTE, priority 2013, dated 2021).
In brackets after ≈: the same amount, converted by molar mass. Entries after “also recorded” stand apart in the source; their conditions may differ. Where two headings read alike, the source gives them in different places.

Key:
ATG-Myc = ATG-Myc (Homo sapiens, UniProt P01106); test: Myc-induced oncogenic transformation (focus assay) in chicken embryo fibroblasts; assay type: cell-based; conditions: for Inhibition of ATG-Myc focus formation: CEF focus assay, concentration of 10 μM; for Inhibition of Myc oncogenic activity in CEF transformation assay: ATG-Myc; for EOT (efficiency of transformation): focus counts in the presence of inhibitor over focus counts of control plates, CEF infected with RCAS ATG-Myc
Solubility in water = assay type: physicochemical
[1] = test system: NDRG1 (N-myc downregulated gene 1); test: NDRG1 expression by Western blot in MDA-MB-231 and NCI-H460 cells; assay type: cell-based, human; conditions: 20 μM, 24 hrs
Procedure: (§1) NCI-H460 cells were grown in RPMI medium, and MDA-MB-231 cells were grown in DMEM medium; both media contained 10% FBS. KJ-Pyr-9 and 10058-F4 were added at a concentration of 20 μM and the cells were treated for 24 hrs before Western blot analysis.
(§2) Interference with Myc transcriptional activity of Myc affects the transcription of a large number of target genes and can function as activator or repressor. […] NDRG1 is a direct transcriptional target of Myc that acts as a repressor of this gene. For comparison, we used the previously identified inhibitor of MYC-MAX dimerization that binds to the disordered monomer and prevents Myc from adopting a conformation needed for the interaction with MAX (Wang et al., Mol. Cancer Ther. 6:2399-2408, 2007; and Huang et al., Exp. Hematol. 34:1480-1489, 2006). Both KJ-Pyr-9 and 10058-F4 cause an increase of NDRG1 expression (FIG. 4).

MYC = test: Myc levels by Western blot in MDA-MB-231 and NCI-H460 cells; assay type: cell-based, human; conditions: 20 μM, 24 hrs
Procedure: as §1, §2

[2] = Pharmacokinetics and tolerability in mice; assay type: in vivo, mouse; conditions: for concentration at 4 h: ip, mice, 10 mg/kg intraperitoneally
Procedure: (§3) In vivo activity of KJ-Pyr-9: Previous Myc inhibitors have not been effective in animal model studies. These failures resulted from insufficient affinity toward Myc and poor pharmacokinetic properties.
(§4) Pharmacokinetics. Three mice were injected with 10 mg/kg KJ-Pyr-9 dissolved in 10:10:80 Tween-80:DMSO:5% Dextrose/water intraperitoneally. At 4 hours concentrations of KJ-Pyr-9 in the plasma and in the brain were 3.5 and 12.4 μM respectively. Rats were dosed with 1 mg/kg i.v.; elimination half lives in plasma were approximately 1.84 h (rats).

Pharmacokinetics in rats = assay type: in vivo, rat; conditions: 1 mg/kg i.v.
Procedure: as §3, §4

[3] = test system: xenograft of MDA-MB-231 cells; test: MDA-MB-231 xenograft in nude mice; assay type: in vivo, mouse; conditions: 10 mg/kg daily i.p.
Procedure: When tumors reached a volume of 100 mm^3 half of the mice were given daily i.p. injections of 10 mg/kg KJ-PYR-9 and the other half received vehicle only. Tumor growth was followed for 31 days. (A) Tumor volumes of treated and untreated animals. (B) Tumor weights of treated and untreated animals. (C) Time course of tumor volumes.
To test the in vivo effectiveness of KJ-Pyr-9, nude mice received a xenograft of MDA-MB-231 cells suspended in Matrigel and injected subcutaneously into the left and right flanks. When the tumors had reached an average volume of 100 mm^3, mice were treated daily with 10 mg/kg KJ-Pyr-9 or vehicle control by intraperitoneal injection for 31 days. […] At the conclusion of the experiment the tumors were extracted and weighed. […] Treatment with KJ-Pyr-9 had no effect on the body weight of the animals.
Xenograft experiments. […] Tumor volume and mouse weight were measured daily. […] Tumors were weighed.
Statistical methods. Tumor volumes were calculated using (length)×(width)^2. Tumor volumes were evaluated using Efron's Bootstrap (ISBN:0412042312) procedures as implemented in the R statistics program (Wu and Houghton, J. Biopharma. Stat. 19:755-762, 2009). Mean volumes and 90% confidence intervals were determined using bootstrap resampling with 10^6 randomizations and graphed using the ggplot2 package (ISBN:0387981403). P-values were determined using the resampling permutation method with 10^6 randomizations.

N-Myc = N-Myc (Homo sapiens, UniProt P04198); conditions: CEF, dose response
Procedure: (§5) Data from a representative experiment conducted with the cells derived from a single chicken embryo.
(§6) The assay of oncogene-induced cellular transformation in CEF was also used to determine selectivity of KJ-Pyr-9 for Myc.
(§7) Assay for oncogenic transformation in cell culture. […] CEF were infected with a series of ten-fold dilutions of the indicated virus. Compounds were added to the nutrient agar overlay. Additional compound-containing overlay was added every 3 days until experimental end point.

v-Src = v-Src (Rous sarcoma virus subgroup A, UniProt P00524); conditions: CEF, dose response
Procedure: as §5, §6, §7

v-Jun = v-Jun (Avian sarcoma virus, UniProt P05411); conditions: CEF, dose response
Procedure: as §5, §6, §7

MYC^332-439 with MAX = MYC^332-439 with MAX (Homo sapiens, UniProt P01106); conditions: HEK293 cells, 20 μM, compared to PKA RII:RII control biosensor
Procedure: (§8) We used an efficient and sensitive PCA biosensor which is based on the PPI involving the full length MAX protein and the C-terminal MAX-interaction-domain in MYC (MYC^332-439).
(§9) HEK293 cells were grown in Dulbecco's Modified Eagle's Medium (DMEM) supplemented with 10% fetal bovine serum (FBS). The indicated Rluc-PCA expression constructs were transiently overexpressed in a 24-well plate format. […] Following treatment, the growth medium was exchanged and cells were resuspended in phosphate buffered saline (PBS). Cell suspensions were transferred to white walled 96-well plates and were subjected to bioluminescence analysis using the LMax II 384 luminometer (Molecular Devices). Rluc bioluminescence signals were integrated for 10 sec following addition of the Rluc substrate benzyl-coelenterazine to intact cells (5 μM; Nanolight).

MAX homodimerization = MAX homodimerization (Homo sapiens, UniProt P61244); conditions: HEK293 cells, 20 μM
Procedure: as §8, §9

NCI-H460 = conditions: NCI-H460, 72 hrs, 2.5% FBS
MDA-MB-231 = conditions: MDA-MB-231, 216 hrs, 2.5% FBS
SUM-159PT = conditions: 120 hrs, 2.5% FBS
[4] = test system: Burkitt's lymphoma cell lines (Akata, Ramos, Raji); conditions: 72 hours
Procedure: (A) Akata, (B) Ramos, (C) Raji. 10^3 cells were seeded per well on 96-well plates and were treated with the indicated concentrations of KJ-Pyr-9 for 72 hours. Cell proliferation was determined by resazurin fluorescence.

[5] = test system: normal quail embryo fibroblasts (QEF); conditions: 25 or 50 μM, 24 hrs
[6] = test system: QEF oncogenically transformed by the v-jun oncogene (VJ); conditions: 25 or 50 μM, 24 hrs
[7] = test system: QEF transformed by methylcholanthrene (QT6); conditions: 25 or 50 μM, 24 hrs
[8] = test system: cells transformed by v-myc (Q8, QEF/MC29)
K-562 = conditions: K-562, 25 or 50 μM, 24 hrs
MOLT-4 = conditions: MOLT-4, 25 or 50 μM, 24 hrs
HL-60 = conditions: HL-60, 25 or 50 μM, 24 hrs
human fibroblasts (hFB) = conditions: 25 or 50 μM, 24 hrs
SW-480 = conditions: SW-480, 25 or 50 μM, 24 hrs
NDRG1 = conditions: 10 mg/kg daily i.p., Western blot of frozen tumor samples
Procedure: In order to determine drug activity in tumor cells, protein lysates were prepared from frozen tumor samples and analyzed by Western blot.
Xenograft experiments. […] Cells were suspended in high concentration Matrigel (BD Biosciences) prior to injection. Xenograft tumors were allowed to grow until the average volume of the tumors reached 100 mm^3 as measured by external calipers. At this point, the mice were divided into two groups. […] Tumor volume and mouse weight were measured daily. Vehicle used in all cases was 10:10:80 DMSO:Tween-80:5% dextrose in water. The mice were treated for a period of 31 days. At the end of the experiment, the mice were euthanized and tumors excised. Tumors were weighed. Samples of each tumor were fixed in formalin for histology and frozen for Western blotting. All vertebrate experiments were conducted with the approval of the TSRI IACUC.

v-src, and v-jun = conditions: CEF specificity assay
Procedure: as §7
The specificity of the inhibitory activities of the analog compounds was also examined.

Chain of ATG-Myc (P01106 whole entry): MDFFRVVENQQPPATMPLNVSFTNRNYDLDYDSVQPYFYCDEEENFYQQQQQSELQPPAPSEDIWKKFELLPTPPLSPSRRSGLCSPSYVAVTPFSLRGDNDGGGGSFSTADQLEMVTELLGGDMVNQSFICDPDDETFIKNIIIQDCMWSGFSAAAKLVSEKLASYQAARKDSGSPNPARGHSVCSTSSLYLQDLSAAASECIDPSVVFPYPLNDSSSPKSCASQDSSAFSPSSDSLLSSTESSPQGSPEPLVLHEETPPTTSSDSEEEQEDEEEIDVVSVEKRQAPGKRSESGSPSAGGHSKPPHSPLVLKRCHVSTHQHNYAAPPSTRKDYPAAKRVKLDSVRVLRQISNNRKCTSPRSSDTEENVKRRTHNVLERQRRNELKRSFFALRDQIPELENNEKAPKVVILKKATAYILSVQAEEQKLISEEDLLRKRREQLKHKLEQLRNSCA
Chain of MAX homodimerization (P61244 whole entry): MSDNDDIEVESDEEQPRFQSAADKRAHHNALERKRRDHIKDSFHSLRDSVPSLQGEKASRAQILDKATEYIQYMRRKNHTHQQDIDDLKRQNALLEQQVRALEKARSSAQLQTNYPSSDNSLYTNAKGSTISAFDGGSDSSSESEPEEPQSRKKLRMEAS
Chain of v-Jun (P05411 whole entry): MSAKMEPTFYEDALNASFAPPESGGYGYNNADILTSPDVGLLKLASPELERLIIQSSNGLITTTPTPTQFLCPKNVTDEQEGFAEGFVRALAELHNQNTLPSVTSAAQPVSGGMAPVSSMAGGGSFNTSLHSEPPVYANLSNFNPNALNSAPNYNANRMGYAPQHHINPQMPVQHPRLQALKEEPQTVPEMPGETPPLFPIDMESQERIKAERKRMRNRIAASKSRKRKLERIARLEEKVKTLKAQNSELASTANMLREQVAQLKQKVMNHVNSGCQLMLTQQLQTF
Chain of N-Myc (P04198 whole entry, species assumed): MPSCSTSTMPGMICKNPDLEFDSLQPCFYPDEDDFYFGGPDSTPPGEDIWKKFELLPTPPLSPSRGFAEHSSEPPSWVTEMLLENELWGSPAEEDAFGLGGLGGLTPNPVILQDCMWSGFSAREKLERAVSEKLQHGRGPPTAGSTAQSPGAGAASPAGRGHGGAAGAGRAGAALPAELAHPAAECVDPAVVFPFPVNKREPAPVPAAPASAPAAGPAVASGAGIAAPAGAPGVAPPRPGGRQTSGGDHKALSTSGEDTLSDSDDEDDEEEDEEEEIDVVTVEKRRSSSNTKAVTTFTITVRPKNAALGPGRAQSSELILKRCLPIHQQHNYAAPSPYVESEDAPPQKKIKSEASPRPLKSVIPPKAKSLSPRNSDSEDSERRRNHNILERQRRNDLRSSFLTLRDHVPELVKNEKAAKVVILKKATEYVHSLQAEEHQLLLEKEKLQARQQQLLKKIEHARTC
Chain of MYC^332-439 with MAX (P01106 347-454): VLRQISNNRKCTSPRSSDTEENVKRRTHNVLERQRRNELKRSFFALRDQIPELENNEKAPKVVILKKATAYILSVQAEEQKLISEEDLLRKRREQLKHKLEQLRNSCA
Chain of v-Src (P00524 whole entry): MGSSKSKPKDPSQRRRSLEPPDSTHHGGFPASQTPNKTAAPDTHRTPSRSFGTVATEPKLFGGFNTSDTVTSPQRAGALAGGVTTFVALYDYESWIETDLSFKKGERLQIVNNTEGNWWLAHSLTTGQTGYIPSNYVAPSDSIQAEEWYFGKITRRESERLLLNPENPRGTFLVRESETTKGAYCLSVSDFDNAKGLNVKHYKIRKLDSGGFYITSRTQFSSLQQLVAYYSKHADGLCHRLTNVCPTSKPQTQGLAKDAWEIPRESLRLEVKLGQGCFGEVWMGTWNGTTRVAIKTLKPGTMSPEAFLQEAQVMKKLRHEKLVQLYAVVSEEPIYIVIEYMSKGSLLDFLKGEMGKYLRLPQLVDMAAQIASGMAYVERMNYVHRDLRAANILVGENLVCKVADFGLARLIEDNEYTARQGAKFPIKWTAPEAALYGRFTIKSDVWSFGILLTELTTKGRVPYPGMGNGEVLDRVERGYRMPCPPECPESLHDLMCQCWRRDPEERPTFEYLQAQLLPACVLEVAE

## NC(=O)c1ccc(-c2cc(-c3ccc([N+](=O)[O-])cc3)nc(-c3ccco3)c2)cc1 [CG-RS-44, 4-(2-(furan-2-yl)-6-(4-nitrophenyl)pyridin-4-yl)benzamide]
ATG-Myc; 0-20 μM (0, 1.25, 2.5, 5, 10, and 20 μM)
  Dose dependence of inhibition of ATG-Myc focus formation: dose-dependent inhibition
ATG-Myc; CEF assay
  Comparison of IC50 values for ATG-Myc focus formation: better than all analogs tested
ATG-Myc
  Inhibition of ATG-Myc focus formation: no foci formation
ATG-Myc; listed as KJ-Pyr-9
  Inhibition of Myc oncogenic activity in CEF transformation assay: effective; also recorded: strongly inhibited
Solubility in water
  solubility: 12.5 µM (≈ 4.82 µg/mL)
[1]
  NDRG1 expression: increase
MYC
  Effect on Myc levels: only a slight effect
[2]; dose of 10 mg/kg
  Acute toxicity: no signs of acute toxicity
[2]; mouse, brain, read-out: Concentration in the brain
  concentration at 4 h: 12.4 µM
[2]; mouse, in vivo
  Blood brain barrier penetration: crossed the blood brain barrier
  Brain versus blood concentration: higher concentrations in brain tissue than in the blood
[2]; mouse, plasma, read-out: Concentration in the plasma
  concentration at 4 h: 3.5 µM
Pharmacokinetics in rats
  Elimination half life in plasma: approximately 1.84 h
[3]; 31 days
  Body weight of the animals: no effect
[3]; by day 31
  Tumor volume: had not increased significantly
[3]; end of experiment (31 days)
  Tumor weight: halt tumor growth
[3]; nude mice
  Onset of inhibition of tumor growth: noted after eight days of treatment
N-Myc
  Inhibition of oncogenic activity of N-Myc: strongly inhibited
v-Src
  Inhibition of oncogenic transformation by v-Src: unaffected
v-Jun
  Inhibition of oncogenic transformation by v-Jun: inhibited at significantly higher concentrations
MYC^332-439 with MAX
  Complex formation of MYC^332-439 with MAX (Rluc PCA): selectively reduced complex formation
MAX homodimerization
  MAX homodimerization (Rluc PCA): interfered with MAX homodimerization, albeit to a lesser degree
NCI-H460
  Cell proliferation: inhibited
MDA-MB-231
  Cell proliferation: inhibited
SUM-159PT
  Cell proliferation: inhibited
[4]
  Cell proliferation: very sensitive
[5]
  Cell growth: only slightly impaired in their growth
[6]
  Cell growth: only slightly impaired in their growth
[7]
  Cell growth: only slightly impaired in their growth
[8]
  Cell growth: significantly more affected
K-562
  Cell proliferation: strongly inhibited
MOLT-4
  Cell proliferation: strongly inhibited
HL-60
  Cell proliferation: strongly inhibited
Human fibroblasts (hFB)
  Cell proliferation: not affected
SW-480
  Cell proliferation: not affected
NDRG1
  Expression of NDRG1 in tumor lysates: significantly enhanced

## N#Cc1ccc(-c2cc(-c3ccc(C(N)=O)cc3)cc(-c3ccco3)n2)cc1 [CG-RS-47]
ATG-Myc
  Inhibition of ATG-Myc focus formation: no foci formation
v-src, and v-jun
  Specificity for inhibiting Myc over v-src, 111047R and v-jun: some degrees of specificity

## NC(=O)c1ccc(-c2cc(-c3ccc([N+](=O)[O-])cc3)nc(-c3ccco3)c2)o1 [CG-RS-50, 5-(2-(furan-2-yl)-6-(4-nitrophenyl)pyridin-4-yl)furan-2-carboxamide]
ATG-Myc
  Inhibition of ATG-Myc focus formation: some inhibiting activities
  Inhibition of Myc oncogenic activity in CEF transformation assay: effective

## NC(=O)c1ccc(-c2cc(-c3ccc(C(F)(F)F)cc3)nc(-c3ccco3)c2)cc1 [CG-RS-54]
ATG-Myc
  Inhibition of ATG-Myc focus formation: some inhibiting activities

## NC(=O)c1ccc(-c2cc(-c3ccc(OC(F)(F)F)cc3)nc(-c3ccco3)c2)cc1 [CG-RS-55]
ATG-Myc
  Inhibition of ATG-Myc focus formation: some inhibiting activities

## CS(=O)(=O)c1ccc(-c2cc(-c3ccc(C(N)=O)cc3)cc(-c3ccco3)n2)cc1 [CG-RS-58]
ATG-Myc
  Inhibition of ATG-Myc focus formation: no inhibition

## NC(=O)c1ccc(-c2cc(-c3ccc(SC(F)(F)F)cc3)nc(-c3ccco3)c2)cc1 [CG-RS-61]
ATG-Myc
  Inhibition of ATG-Myc focus formation: no inhibition

## COC(=O)c1ccc(-c2cc(-c3ccc(C(N)=O)cc3)cc(-c3ccco3)n2)cc1 [CG-RS-64]
ATG-Myc
  Inhibition of ATG-Myc focus formation: no inhibition

## COC(=O)c1cccc(-c2cc(-c3ccc(C(N)=O)cc3)cc(-c3ccco3)n2)c1 [CG-RS-70]
ATG-Myc
  Cell growth in CEF focus assay: slight decrease in cell growth
  Inhibition of ATG-Myc focus formation: no foci formation

## NC(=O)c1ccc(-c2cc(-c3ccc(Br)cc3)nc(-c3ccc([N+](=O)[O-])cc3)c2)cc1 [CG-RS-90]
ATG-Myc
  Inhibition of ATG-Myc focus formation: no inhibition

## NC(=O)c1ccc(-c2cc(-c3ccc([N+](=O)[O-])cc3)nc(-c3ccccc3Br)c2)cc1 [CG-RS-91]
ATG-Myc
  Inhibition of ATG-Myc focus formation: no inhibition

## NC(=O)c1ccc(-c2cc(-c3ccc([N+](=O)[O-])cc3)nc(-c3cccc(Br)n3)c2)cc1 [CG-RS-106]
ATG-Myc
  Inhibition of ATG-Myc focus formation: no inhibition

## NC(=O)c1ccc(-c2cc(-c3ccc([N+](=O)[O-])cc3)nc(-c3ccc(Br)cn3)c2)cc1 [CG-RS-123]
ATG-Myc
  Inhibition of ATG-Myc focus formation: no inhibition

## NC(=O)c1ccc(-c2cc(-c3ccc([N+](=O)[O-])cc3)nc(-c3ccccn3)c2)cc1 [CG-RS-128]
ATG-Myc
  Inhibition of ATG-Myc focus formation: no inhibition

## NC(=O)c1ccc(-c2cc(-c3ccncc3)nc(-c3ccc([N+](=O)[O-])cc3)c2)cc1 [CG-RS-129]
ATG-Myc
  Cell growth in CEF focus assay: slight decrease in cell growth
  Inhibition of ATG-Myc focus formation: no foci formation
v-src, and v-jun
  Specificity for inhibiting Myc over v-src, 111047R and v-jun: some degrees of specificity

## CCc1ccc(/C=C2/SC(=S)NC2=O)cc1 [Compound 10058-F4, reference compound]
[1]
  NDRG1 expression: increase
MYC
  Effect on Myc levels: strong decrease

## NC(=O)c1ccc(-c2ccc(-c3cc(-c4ccccc4)nc(-c4ccco4)c3)cc2)cc1 [KJ-Pyr-4, 4′-(2-(furan-2-yl)-6-phenylpyridin-4-yl)-[1,1′-biphenyl]-4-carboxamide]
ATG-Myc
  EOT (efficiency of transformation): 1.12

## COc1ccc(-c2cc(-c3ccc(C(N)=O)o3)cc(-c3ccco3)n2)cc1 [KJ-Pyr-6, 5-(2-(furan-2-yl)-6-(4-methoxyphenyl)pyridin-4-yl)furan-2-carboxamide]
ATG-Myc
  EOT (efficiency of transformation): 0.79
